Assay results reported in patent US11633454B2, “Compositions and methods for treating metabolic diseases” (SHANGHAI HEP PHARMACEUTICAL CO., LTD., priority 2016, dated 2023).

Assays:
NTCP = molecular target: T1, NTCP (Homo sapiens, UniProt Q14973); assay: In vitro bile acids assay (3H-TA uptake by NTCP-293 cells)
T1 sequence (Q14973 1-349): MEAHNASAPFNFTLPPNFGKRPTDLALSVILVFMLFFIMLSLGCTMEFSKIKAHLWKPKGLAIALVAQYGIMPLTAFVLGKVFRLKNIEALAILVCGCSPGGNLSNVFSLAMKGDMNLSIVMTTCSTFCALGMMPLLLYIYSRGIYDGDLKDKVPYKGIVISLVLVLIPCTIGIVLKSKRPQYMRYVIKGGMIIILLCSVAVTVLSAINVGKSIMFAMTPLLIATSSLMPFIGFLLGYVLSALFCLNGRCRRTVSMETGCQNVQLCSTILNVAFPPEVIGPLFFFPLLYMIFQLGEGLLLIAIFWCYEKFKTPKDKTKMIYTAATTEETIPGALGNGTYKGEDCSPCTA

[1] = test system: Zucker Diabetic Fatty (ZDF) rats; assay: Zucker Diabetic Fatty (ZDF) rats, 4 weeks of treatment (GLU, HbA1c, insulin, TC, TG, BUN, organ index, TBA); format: in vivo, rat
[2] = test system: hyperlipidemic golden hamsters; assay: Hyperlipidemic golden hamster model, 4 weeks of treatment; format: in vivo; details: 50 mg/kg FENO po
[3] = 300 mg/kg Met, 2 weeks of dosing
[4] = 300 mg/kg Met, 4 weeks of dosing
[5] = ZDF rats, after 4 weeks of treatment, 300 mg/kg Met oral gavage, mean ± SEM

C=C[C@H]1C[N@@]2CC[C@H]1C[C@@H]2[C@@H](O)c1ccnc2ccc(OC)cc12 [quinidine]
Effect on TA absorption (NTCP; 0.1 μmol/L, FIG. 5E): enhanced TA absorption
Effect on TA absorption (NTCP; 20 μmol/L, FIG. 5F): enhanced TA absorption

CN(C)C(=N)N=C(N)N [Met, Metformin]
Fasting serum GLU (χ ± SEM) ([1]; 300 mg/kg Met oral gavage, 2 weeks of dosing): 7.98 ± 1.02 mmol/L
Fasting serum GLU (χ ± SEM) ([1]; 300 mg/kg Met oral gavage, 4 weeks of dosing): 8.35 ± 0.58 mmol/L
Fasting serum GLU (χ ± SEM) ([1]; 300 mg/kg Met oral gavage, week 0): 9.71 ± 0.96 mmol/L
Serum BUN (χ ± SEM) [1, 3]: 6.58 ± 0.52 mM
Serum TC (χ ± SEM) [1, 3]: 5.24 ± 0.35 mM
HbA1c level (χ ± SEM) [1, 4]: 5.07 ± 0.23 %
Serum BUN (χ ± SEM) [1, 4]: 7.09 ± 0.36 mM
Serum TC (χ ± SEM) [1, 4]: 6.95 ± 0.54 mM
HbA1c level (χ ± SEM) ([1]; 300 mg/kg Met, week 0): 6.25 ± 0.31%
Serum BUN (χ ± SEM) ([1]; 300 mg/kg Met, week 0): 5.52 ± 0.21 mM
Serum TC (χ ± SEM) ([1]; 300 mg/kg Met, week 0): 3.82 ± 0.11 mM
Serum insulin (χ ± SEM) ([1]; 300 mg/kg Met, week 0): 6.74 ± 0.62 ng/mL
Heart index (HI) vs model controls ([1]; MET 300 mg/kg, 4 weeks, FIG. 27A): had no effect on the HI values
Total fat index (TFI) vs model controls ([1]; MET 300 mg/kg, 4 weeks, FIG. 27C): appeared to increase the TFI values
Fasting serum GLU ([1]; MET positive control in the experiment with additional polypeptides, FIGS. 18A, 18B): significantly decreased fasting serum GLU
Serum TBA level after weeks of dosing ([1]; ZDF rats, 300 mg/kg Met, week 0, mean ± SEM): 32.8 ± 12.3 µM
Serum TBA level after weeks of dosing ([1]; ZDF rats, 300 mg/kg Met, week 2, mean ± SEM): 82.5 ± 27 µM
Serum TBA level after weeks of dosing ([1]; ZDF rats, 300 mg/kg Met, week 4, mean ± SEM): 83 ± 15.8 µM
Heart index [1, 5]: 3.63 ± 0.24 g/kg
Kidney index [1, 5]: 7.26 ± 0.55 g/kg
Total fat index [1, 5]: 94.64 ± 3.79 g/kg

CC(C)OC(=O)C(C)(C)Oc1ccc(C(=O)c2ccc(Cl)cc2)cc1 [FENO, Fenofibrate]
Serum TC (χ ± S) ([2]; 2 w of dosing): 6.63 ± 4.40 mmol/L
Serum TG (χ ± S) ([2]; 2 w of dosing): 3.14 ± 0.4 mmol/L
Serum TC (χ ± S) ([2]; 4 w of dosing): 7.42 ± 1.70 mmol/L
Serum TG (χ ± S) ([2]; 4 w of dosing): 2.68 ± 0.30 mmol/L
Serum HDL-C ([2]; 4 weeks post the treatment): 3.13 ± 0.30 mmol/L
Serum LDL-C ([2]; 4 weeks post the treatment): 1.88 ± 0.40 mmol/L
AI (atherosclerosis index) ([2]; 4 weeks, AI=(TC−HDL-C)/HDL-C): 1.36 ± 0.38
Serum TC (χ ± S) ([2]; before dosing): 11.34 ± 0.50 mmol/L
Serum TG (χ ± S) ([2]; before dosing): 6.16 ± 1.30 mmol/L
